Numbers after ± are expanded uncertainties. Blank lines part the entries; values can stand above or below the compound they belong to.
Assays:
[1] = refractive index (Na D-line) (dimensionless); wn = mass fraction of the nth substance listed; details: 333.15 K, 101 kPa, Liquid
[2] = wn = mass fraction of the nth substance listed; details: 333.15 K, 101 kPa, Liquid

refractive index ([1]; w2 = 0): 1.326 ± 0.005
Compound: O [water] + O=C[C@H](O)[C@@H](O)[C@H](O)[C@H](O)CO

mass density ([2]; w1 = 0.1): 1022 ± 2 kg/m3
viscosity ([2]; w1 = 0.1): 29.4 mPa·s
mass density ([2]; w1 = 0.2): 1063 ± 3 kg/m3
viscosity ([2]; w1 = 0.2): 34.8 mPa·s
mass density ([2]; w1 = 0.3): 1109 ± 3 kg/m3
viscosity ([2]; w1 = 0.3): 43.8 mPa·s
mass density ([2]; w1 = 0.4): 1157 ± 4 kg/m3
viscosity ([2]; w1 = 0.4): 63 mPa·s
mass density ([2]; w1 = 0.5): 1207 ± 5 kg/m3
viscosity ([2]; w1 = 0.5): 107.1 mPa·s
mass density ([2]; w1 = 0.6): 1268 ± 6 kg/m3
viscosity ([2]; w1 = 0.6): 264.6 mPa·s
mass density ([2]; w1 = 0.7): 1334 ± 7 kg/m3
viscosity ([2]; w1 = 0.7): 409.2 mPa·s
mass density ([2]; w1 = 0.8): 1376 ± 8 kg/m3
viscosity ([2]; w1 = 0.8): 430.8 mPa·s
refractive index ([1]; w1 = 0.1): 1.341 ± 0.005
refractive index ([1]; w1 = 0.2): 1.359 ± 0.005
refractive index ([1]; w1 = 0.3): 1.375 ± 0.005
refractive index ([1]; w1 = 0.4): 1.395 ± 0.005
refractive index ([1]; w1 = 0.5): 1.416 ± 0.005
refractive index ([1]; w1 = 0.6): 1.432 ± 0.005
refractive index ([1]; w1 = 0.7): 1.455 ± 0.005
refractive index ([1]; w1 = 0.8): 1.477 ± 0.005
refractive index ([1]; w1 = 0.9): 1.506 ± 0.005
Compound: O=C[C@H](O)[C@@H](O)[C@H](O)[C@H](O)CO [D-glucose] + O

From the NIST ThermoML archive (doi:10.1021/je700177n)
